For assay [1], the target named is T1, ENPP3 (Homo sapiens, UniProt O14638).
T1 sequence (O14638 1-875): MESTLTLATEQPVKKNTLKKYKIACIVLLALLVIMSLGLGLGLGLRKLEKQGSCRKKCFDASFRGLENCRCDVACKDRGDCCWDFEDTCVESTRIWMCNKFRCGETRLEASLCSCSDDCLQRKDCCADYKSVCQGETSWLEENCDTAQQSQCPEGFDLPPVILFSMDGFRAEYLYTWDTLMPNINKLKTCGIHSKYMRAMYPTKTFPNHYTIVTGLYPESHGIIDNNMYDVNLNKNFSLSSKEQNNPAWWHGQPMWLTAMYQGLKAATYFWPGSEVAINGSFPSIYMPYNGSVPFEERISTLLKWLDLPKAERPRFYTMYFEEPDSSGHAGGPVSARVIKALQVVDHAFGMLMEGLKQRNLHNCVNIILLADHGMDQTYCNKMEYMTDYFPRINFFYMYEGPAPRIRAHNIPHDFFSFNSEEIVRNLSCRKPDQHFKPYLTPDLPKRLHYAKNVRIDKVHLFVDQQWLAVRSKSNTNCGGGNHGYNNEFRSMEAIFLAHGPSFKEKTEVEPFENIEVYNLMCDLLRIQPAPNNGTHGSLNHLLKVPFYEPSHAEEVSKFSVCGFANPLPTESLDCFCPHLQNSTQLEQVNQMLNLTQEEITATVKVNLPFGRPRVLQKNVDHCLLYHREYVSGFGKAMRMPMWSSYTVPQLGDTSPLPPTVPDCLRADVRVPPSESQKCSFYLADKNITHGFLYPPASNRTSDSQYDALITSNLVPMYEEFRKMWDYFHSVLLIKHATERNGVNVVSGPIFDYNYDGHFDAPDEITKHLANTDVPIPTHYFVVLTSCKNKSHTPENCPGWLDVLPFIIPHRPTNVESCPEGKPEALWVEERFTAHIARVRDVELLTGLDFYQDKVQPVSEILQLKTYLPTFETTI
Description: ENPP3 Km ATP assay. The class given is biochemical. To be noted: ATP at Km.

For assay [2], the target named is T2, human ENPP1 (Homo sapiens, UniProt P22413).
T2 construct: made in house
T2 sequence (P22413 1-925): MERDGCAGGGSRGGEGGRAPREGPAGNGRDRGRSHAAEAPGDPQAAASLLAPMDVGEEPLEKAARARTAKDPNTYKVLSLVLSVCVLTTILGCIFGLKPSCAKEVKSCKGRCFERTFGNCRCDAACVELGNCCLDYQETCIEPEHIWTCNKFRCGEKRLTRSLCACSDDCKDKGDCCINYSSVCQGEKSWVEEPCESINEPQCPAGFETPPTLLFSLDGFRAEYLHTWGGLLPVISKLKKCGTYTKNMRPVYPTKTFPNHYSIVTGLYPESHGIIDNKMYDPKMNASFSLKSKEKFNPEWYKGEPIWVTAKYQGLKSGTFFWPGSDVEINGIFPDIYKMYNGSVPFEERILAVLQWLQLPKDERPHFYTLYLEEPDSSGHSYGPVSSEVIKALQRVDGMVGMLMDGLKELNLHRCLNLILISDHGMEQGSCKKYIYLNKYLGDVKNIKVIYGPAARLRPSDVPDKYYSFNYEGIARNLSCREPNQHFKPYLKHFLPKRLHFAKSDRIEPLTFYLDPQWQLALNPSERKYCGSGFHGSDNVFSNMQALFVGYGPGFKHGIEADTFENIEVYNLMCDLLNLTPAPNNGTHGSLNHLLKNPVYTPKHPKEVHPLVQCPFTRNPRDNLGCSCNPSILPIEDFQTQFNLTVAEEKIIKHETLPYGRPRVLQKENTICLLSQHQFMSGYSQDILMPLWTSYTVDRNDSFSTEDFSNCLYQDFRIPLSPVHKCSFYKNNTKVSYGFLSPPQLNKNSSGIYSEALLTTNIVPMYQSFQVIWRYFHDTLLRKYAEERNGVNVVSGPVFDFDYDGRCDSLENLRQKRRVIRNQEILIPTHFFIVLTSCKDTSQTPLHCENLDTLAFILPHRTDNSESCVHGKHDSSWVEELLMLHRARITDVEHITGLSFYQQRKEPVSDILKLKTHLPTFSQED
Description: ENPP1 assay with ATP substrate (Transcreener AMP2/GMP2 TR-FRET). The assay is classed as biochemical. To be noted: 1 hour at room temperature. In short, it runs like this:
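5′-AMP from ATP hydrolysis (300 nM ATP stock added; enzyme added as 8.5 μM stock) detected by competitive TR-FRET. Buffer: 50 mM Tris pH 7.5, 1 mM TCEP, 2 mM MgCl2, 0.005% Tween 20, 1% DMSO. Reaction 1 h at room temperature, EDTA stop. IC50 from 2-parameter variable-slope fit.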

The term IC50 denotes the concentration needed to halve the response being measured. In the case of `CCn1ncc2c(NCc3ccc(S(N)(=O)=O)cc3)nc(Cl)nc21` [Example 2.83, 4-((6-Chloro-1-ethyl-1H-pyrazolo[3,4-d]pyrimidin-4-yl)aminomethyl)benzenesulfonamide], the figures for the IC50 in assay [1] and in assay [2] were 1 to 20 µM and less than 0.1 µM, respectively.

For the molecule `NS(=O)(=O)c1ccc(CNc2nc(Cl)nc3c2cnn3C2CC2)cc1` [Example 2.84, 4-((6-Chloro-1-cyclopropyl-1H-pyrazolo[3,4-d]pyrimidin-4-yl)aminomethyl)-benzenesulfonamide], the results for the IC50 in assay [1] and in assay [2] were 1 to 20 µM and less than 0.1 µM, respectively.

Take `Cn1ncc2c(NCc3ccc(S(N)(=O)=O)s3)nc(Cl)nc21` [Example 2.85, 5-((6-Chloro-1-methyl-1H-pyrazolo[3,4-d]pyrimidin-4-yl)aminomethyl)thiophene-2-sulfonamide]: the IC50 in assay [1] and in assay [2] was 0.1 to 1 µM in each case.

As to `NS(=O)(=O)c1ccc(CNc2nc(Cl)nc3c2cnn3CC(F)(F)F)cc1` [Example 2.86, 4-((6-Chloro-1-(2,2,2-trifluoroethyl)-1H-pyrazolo[3,4-d]pyrimidin-4-yl)aminomethyl)-benzenesulfonamide], the IC50 in assay [1] and in assay [2] was 1 to 20 µM each time.

On to `Cn1nc(Br)c2c(NCc3ccc(S(N)(=O)=O)cc3)nc(Cl)nc21` [Example 2.87, 4-((3-Bromo-6-chloro-1-methyl-1H-pyrazolo[3,4-d]pyrimidin-4-yl)aminomethyl)-benzenesulfonamide], for which the IC50 in assay [1] and in assay [2] was less than 0.1 µM in each case.

As to `Cc1nc(NCc2ccc(S(N)(=O)=O)cc2)c2c(Br)nn(C)c2n1` [Example 2.89, 4-((3-Bromo-1,6-dimethyl-1H-pyrazolo[3,4-d]pyrimidin-4-yl)aminomethyl)-benzenesulfonamide], the IC50 in assay [1] and in assay [2] was less than 0.1 µM throughout.

Take `Cn1nc(Cl)c2c(NCc3ccc(S(N)(=O)=O)cc3)ncnc21` [Example 2.90, 4-((3-Chloro-1-methyl-1H-pyrazolo[3,4-d]pyrimidin-4-yl)aminomethyl)-benzenesulfonamide]: the IC50 in assay [1] and in assay [2] was 0.1 to 1 µM each time.

`Cn1ncc2c(NCc3ccc(S(N)(=O)=O)cc3)nc(Cl)nc21` [Example 2.92, 4-((6-Chloro-1-methyl-1H-pyrazolo[3,4-d]pyrimidin-4-yl)aminomethyl)-benzenesulfonamide]: the IC50 in assay [1] was 0.1 to 1 µM; in assay [2], less than 0.1 µM.

Consider `CCOc1nc(NCc2ccc(S(N)(=O)=O)cc2)c2cnn(C)c2n1` [Example 2.93, 4-((6-Ethoxy-1-methyl-1H-pyrazolo[3,4-d]pyrimidin-4-yl)aminomethyl)-benzenesulfonamide], for which the IC50 is 0.1 to 1 µM in assay [1] and less than 0.1 µM in assay [2].

Regarding `COc1nc(NCc2ccc(S(N)(=O)=O)cc2)c2cnn(C)c2n1` [Example 2.94, 4-((6-Methoxy-1-methyl-1H-pyrazolo[3,4-d]pyrimidin-4-yl)aminomethyl)-benzenesulfonamide], the concentration for half-maximal inhibition (IC50) in assay [1] was 0.1 to 1 µM; in assay [2] it was less than 0.1 µM.

`COc1nc(NCc2ccc(S(N)(=O)=O)s2)c2cnn(C)c2n1` [Example 2.95, 5-((6-Methoxy-1-methyl-1H-pyrazolo[3,4-d]pyrimidin-4-yl)aminomethyl)thiophene-2-sulfonamide]: the IC50 in assay [1] and in assay [2] was 0.1 to 1 µM throughout.

For the molecule `COc1nc(NCc2ccc(S(N)(=O)=O)cc2)c2c(Br)nn(C)c2n1` [Example 2.96, 4-((3-Bromo-6-methoxy-1-methyl-1H-pyrazolo[3,4-d]pyrimidin-4-yl)aminomethyl)-benzenesulfonamide], the IC50 in assay [1] and in assay [2] was less than 0.1 µM in each case.

In the case of `CCOc1nc(NCc2ccc(S(N)(=O)=O)cc2)c2c(Br)nn(C)c2n1` [Example 2.97, 4-((3-Bromo-6-ethoxy-1-methyl-1H-pyrazolo[3,4-d]pyrimidin-4-yl)aminomethyl)-benzenesulfonamide], the IC50 in assay [1] and in assay [2] was less than 0.1 µM in each case.

For the origin of these results see patent US12643910B2, “Substituted pyrazolo[3,4-b]pyridines as ectonucleotide pyrophosphatase/phosphodiesterase 1 (ENPP1) modulators” (SANFORD BURNHAM PREBYS MEDICAL DISCOVERY INSTITUTE, priority 2019, dated 2026).
